Data published in a melting point compilation (Tetko et al.; mined from patent text by program, amines drawn as free bases though some values may be those of a salt).

Compound	melting point [°C]
Cc1cc(C)c2cccc(OCc3c(Cl)ccc(S(=O)(=O)N4CCC[C@H]4C(=O)NCCCNC(=O)c4cccc(C(N)=NO)c4)c3Cl)c2n1	108 to 110
CN1CC[C@H](c2c(O)cc(O)c3c(=O)cc(-c4ccccc4Cl)oc23)[C@H](O)C1	182
COc1cc2ccc(C)cc2c(C(C)C)c1OC	62 to 63
CC1SC(=O)NN=C1c1ccc2c(c1)C(=NNc1ccc(C(C)(C)C)cc1)C(=O)N2 (stereo not given)	299
CCCn1c(=O)n(C2OC(CO)C(O)C2O)c2nc(N)[nH]c(=O)c21 (stereo not given)	151 to 153
O=C1Nc2ccccc2N2CCN(CCc3ccncc3)CC12 (stereo not given)	184 to 186
Cc1nc(N2CCc3ccccc3CC2)c(C#N)c(=O)[nH]1	> 200
CC[C@H]1c2ccc(C#N)n2-c2cc(F)c(F)cc2N1S(=O)(=O)c1ccc(OS(N)(=O)=O)cc1	196 to 201
Cc1nn(-c2cc(OC(C)C)c(Cl)cc2F)c(C)c1N	94 to 96.5
Cc1ncc2n1-c1ccc(Cl)cc1C(c1ccccc1F)N(O)C2 (stereo not given)	246 to 248
O=C(NC1CCCC1)c1ccccc1C(c1ccc(O)cc1)c1ccc(O)cc1	148 to 150
COC(C)=CC(=O)Nc1ccc(Cl)c(Cl)c1	123
Cn1cc(-c2cc3cccnc3[nH]2)c2cc(C(=O)N(CCO)CCO)ccc21	230 to 232
CCN(CC)C(=O)CCCC1CCN(Cc2cnc3cc(NC(=O)c4ccc(-c5ccc(F)cc5)cc4)c(C)cc3c2)CC1	181
Fc1cc(F)cc(Cn2cnnc2S)c1	129 to 130
Nn1cnc2ccccc2c1=O	209 to 210
CCOC(=O)c1cc(CC)sc1Nc1cc(F)cc(F)c1N	106
Cc1nnc2n1-c1ccccc1C(c1ccc(Cl)cc1)=NN2Cc1ccc(N)cc1	234 to 237
CCN(CC)C(=O)CCNC1(c2ccccc2Cl)C(=O)Nc2ccc(Cl)cc21 (stereo not given)	185
COc1cc2c(cc1OC(C)=O)C(=O)CCC2	118 to 120
COc1ccc(Cn2c(=O)c(C(=O)NC3CCCCC3)c(O)c3cccnc32)cc1	149
O=Nc1c(O)cc(N2CCCCC2)c2oc3ccccc3c12	181 to 185
COc1cc([C@H]2C(C#N)=C(N)Oc3c2ccc(NC(=O)CN(C)C(=O)OC2c4ccccc4-c4ccccc42)c3N)cc(Br)c1OC	128 to 130
COc1ccc(C(=O)Cc2c(Cl)cncc2Cl)c2c1OCCO2	158 to 160
O=C(O)CSCc1nccc2ccccc12	186 to 187

Compound	melting point [°C]
CC(C)(C)[Si](C)(C)OCCn1ccc([N+](=O)[O-])n1	76 to 77
COc1ccc(NC(=O)N2CCC(C)C2=O)cc1 (stereo not given)	71 to 72
COn1cc(C(=O)O)c(=O)c2c3sc(=O)n(C)c3ccc21	> 300
CCCC1CCCN(C(=O)C2Cc3ccccc3N2c2ccc(=O)n(C)n2)C1 (stereo not given)	106 to 110
CCOC(=O)COc1ccc(OCc2ccccc2)cc1C(Nc1ccc(C(N)=S)cc1)C(=O)OCC (racemic)	166
COC(=O)[C@@H]1CSC(=O)N1CC(C)(C)SCc1ccc(OC)cc1	51 to 54
CC1(C)C(=O)Oc2ccc3cc(C(=O)NCC(F)(F)F)c(Cn4cncn4)cc3c21	200 to 201
Cc1nc2c(N)nc3ccccc3c2n1CCCCNC(=O)c1ccccc1	164 to 170
CC1(C)Oc2ccc(OCc3ccccc3)cc2C(O)C1Br (stereo not given)	126 to 128
Fc1ccc(Cn2c(NC3CCN(C4CCCN(Cc5ccccc5)C4)CC3)nc3ccccc32)cc1 (stereo not given)	175
CCOC(=O)CCCc1ccc(Nc2ncc3cc(-c4c(Cl)cccc4Cl)c(=O)n(C)c3n2)cc1	169 to 170
O=C(O)C(c1ccc(Cl)cc1)C1CC1 (stereo not given)	95 to 96
N[C@H](Cc1ccc(C(F)(F)F)cc1)[C@@H](O)c1cccc(Cl)n1 (racemic)	89 to 90
CCCCCCCCCCCCCCOc1ccc(CN(C(C)=O)c2ccc(CBr)cc2)cc1	46 to 49
CCCc1ccccc1OCCCOc1ccc2c(=O)cc(C#N)oc2c1	85 to 86
CC(C)(C)OC(=O)Nc1ccc(-c2ccc(F)cc2F)cc1NC(=O)CC(=O)c1ccnc(C#N)c1	160 to 161
CCOC(=O)c1cc(Cl)n2ncnc2n1	92.5 to 94
COC(=O)C(C)(C)Cc1cc2ccc(O)cc2n1C	125 to 126
COc1ccc(C2=NN(CCCCOc3ccc(C(=O)O)cc3)C(=O)[C@H]3CC=CC[C@@H]23)cc1Cl (relative stereo)	169 to 171
CC(CCC(=O)NCCS(=O)(=O)O)C1CCC2C3C(O)CC4CC(NC(=O)CNC(=O)OC(C)(C)C)CCC4(C)C3CC(O)C12C (stereo not given)	150 to 155
Nc1cc(F)c(F)c(Cl)c1Cl	94 to 97.5
CC(C)N1C(N)=NS(=O)(=O)NC1Oc1ccc([N+](=O)[O-])cc1 (stereo not given)	132 to 136
CS(=O)(=O)c1ccc(C=CCN2CCc3nc(N)sc3CC2)cc1	157 to 161
Nc1cccc(OCCCN2C(=O)c3ccccc3C2=O)c1	157 to 162
N#Cc1ccc(-c2ccc(Cl)c(OC3SCC(O)C(O)C3O)c2)cn1 (stereo not given)	192

Further lines, results first:

melting point [°C]	Compound
150 to 151	CCN(CC)c1cccc2nc(Cc3c(Cl)cc(C(F)(F)F)cc3Cl)n(C)c12
86 to 89	O=C(O)CCCc1cc2nc(Cl)ccc2n1S(=O)(=O)c1cc(Cl)ccc1Cl
73 to 74	NC(=O)C1=C(NCc2ccccc2)CCCC1
132 to 134	Cc1noc(NS(=O)(=O)c2cccc(Cl)c2)c1Br
153 to 154	CCN(CC)CCOC(=O)c1cnc2ccn(-c3cccc(Cl)c3)n2c1=O
251 to 252	CC(C)(C)c1cc(C=C2NC(=O)NC2=O)cc(C(C)(C)C)c1O
88 to 89	Cc1nccn1-c1nc(-c2ccc(Cl)cc2)c(CCCC2=NCCO2)o1
119	Cc1cc(SCc2sc(-c3ccc(F)c(F)c3)nc2C)ccc1OCC(=O)O
151 to 153	CCNc1cc(-c2c(-c3cccc(C)c3)nc3cccnn23)ccn1
172 to 173	CC(C)(O)c1cccc(-c2ccc3nc(-c4ccc(Cl)cc4)c(Cl)n3c2)c1
56 to 57	CCN(CC)CCNC(=O)c1cc(N)cc(C)c1OC
170 to 172	CC(C)(C)c1cc(C(C)(C)C)c(Br)c(C(C)(C)C)c1
200	N#Cc1cccc(-c2nc(=O)c3ccccc3s2)c1
120 to 122	N#Cc1cncc(I)c1Cl
92	CC(C)c1ccc(N(Cc2cnn(CCN(C)C)c2)C(=O)C2CCCc3c(O)cccc32)cc1 (stereo not given)
97 to 100	CCc1cc(Oc2ccc([N+](=O)[O-])cc2C(F)(F)F)nn1C(=O)NC
81 to 82	O=C(Oc1c(F)c(F)c(F)c(F)c1F)[C@H]1CCC(=O)N1C(=O)OCc1ccccc1
209 to 210	CC(C)(CC(=O)Nc1cccc(OCc2ccc3ccc(F)cc3n2)c1)C(=O)O
> 300	O=c1[nH]c2ccc(Cl)cc2n2ccnc12
129 to 130	c1ccc(Oc2ccc(C3(Cn4cncn4)OCCCO3)cc2)cc1
110 to 111	COc1ccc(C2NC(=O)C2OC(C)=O)cc1 (stereo not given)
224	CCOC(=O)C1=C(C)Nc2nc(N)nc(N)c2C1c1cccnc1 (stereo not given)
82 to 83	CCCCCc1c(C=CC(=O)OC)nc(C(C)C)c(CO)c1-c1ccc(F)cc1
260	CN(C)C(=O)N[C@H]1CC[C@H](CCN2CCN(c3nccc4c3CCO4)CC2)CC1
155 to 156	CCOC(=O)c1ccc2ccc(O)cc2c1

melting point [°C]	Compound
149 to 152	Cc1ccc(Cl)c(C(N)=O)c1N
> 300	Cc1nc2ccc3nc(O)c(O)nc3c2nc1C
174 to 177	Cc1nc(C)c(CSC(=O)c2ccccc2)c(O)c1O
95.7 to 96.1	CCc1cc(-c2[nH]c3ccccc3c2C)cc(CC)c1OC
168 to 169	CCCNC(=O)C1=CCC2C3CCc4cc(O)ccc4C3CCC12C (stereo not given)
246	CCOC(=O)N1C(=O)C(C)(C)c2cc(C3=NNC(=O)SC3C)ccc21 (stereo not given)
180 to 182	CC#CCOc1ccc(S(=O)(=O)N[C@@H](C(=O)NO)C2CCC(O)CC2)cc1 (stereo not given in full)
219 to 220	CS(=O)(=O)c1ccc(-c2n[nH]c(C(F)(F)F)c2-c2ccc(F)cc2)cc1
156 to 158	COc1cccc2c1C(=O)OC2(C)O (stereo not given)
130 to 132	Cc1cc(C2CCN(C(=O)OC(C)(C)C)CC2)cnc1COc1ccc(S(C)(=O)=O)cc1
216 to 217	CC(C)Cn1c(CNC(=O)OC(C)(C)C)c(-c2cccs2)c2cc(O)ccc2c1=O
157 to 158	CC(C)(C)CC(=O)Nc1ccc2oc3c(c2c1)CCCCCC3
218 to 219	CC(C)(C)NC(=O)C(C#N)=NO
156 to 158	Cc1c(C)c(N2CCN(c3ccc(CN)cc3)CC2)c(C)c2c1OC(C)(C)C2
223 to 224	Cc1oc(C=Cc2ccccc2Cl)nc1C(=O)O
95 to 97	CC(=O)NCCC1CCc2ccc3nc(CCCc4ccccc4)oc3c21 (stereo not given)
214 to 216	CCn1c(Cn2ccnc2-c2cc(F)ccc2F)nc2ncccc21
89 to 90	CCC(CC)N(O)C(=O)NCCCCCCCCNC(=O)N(O)C(CC)CC
165 to 168	O=C1C(=O)N(C(c2ccccc2)(c2ccccc2)c2ccccc2)CCN1Cc1cc(=O)c(OCc2ccccc2)cn1Cc1ccccc1
141 to 143	O=S(=O)(Nc1cccc(CCOCc2csc(-c3ccc(F)c(Cl)c3)n2)c1)C(F)(F)F
108 to 110	CC(CC(C)(C)C)CP(=O)(O)Cc1cc(C(C)(C)C)c(O)c(C(C)(C)C)c1 (stereo not given)
85 to 86	COc1ccc2c(NCCN3CCOCC3)noc2c1
162	COc1ccc(N2C(=O)C(C)(C)N(c3ccc(Cc4ccccc4)cc3)C2=S)cc1
114 to 116	CCOC(=O)C1Cc2cc(-c3noc4ccccc34)c(Cl)c(Cl)c2O1 (stereo not given)
52	CCCCNc1c([N+](=O)[O-])cc(C)cc1[N+](=O)[O-]
